According to patent US8673943B2, “Fluorinated derivatives of deferiprone” (Apotex Technologies Inc., priority 2007, dated 2014):

Columns and labels:
[1] = Chemical stability studies in aqueous media, monitored by HPLC; type: physicochemical; settings: for stability in 50 mM phosphate buffer at pH 7.4 or aqueous 0.01 N NaOH: HPLC Method 1; for stability in aqueous 0.01 N HCl and de-ionized water at pH 5.6: freshly prepared solutions
Description: (2) de-ionized water at pH 5.6;
(3) 50 mM phosphate buffer at pH 7.4; and […]

[2] = In vivo pharmacokinetic (PK) and blood brain barrier (BBB) studies, cassette dosing; parameters: species or system male Sprague-Dawley rats; settings: tail vein injection, rat; for AUC brain* / AUC: normalized to 2 mg/kg dose; for Kp at 5 min / Kp / AUC: male, Sprague-Dawley; for Kp at 5 min / Kp: brain/plasma, intravenous; for Kp at 5 min: read-out: Brain/Plasma ratio at 5 min; for Kp: read-out: AUC brain/AUC plasma; for AUC: iv, plasma
Description: In vivo pharmacokinetic (PK) and blood brain barrier (BBB) studies were conducted in male Sprague-Dawley rats using cassette dosing. The topic of cassette dosing has been reviewed by Manitpisitkul, P. and White, R. E. (August 2004), Drug Discovery, Vol 9. No. 15, pp. 652-658. The mode of administration was through tail vein injection.

[3] = prior-art / published chelators; 1×10^−5 M chelator and 1×10^−6 M Fe(III); cited from earlier work
[4] = pH 7.4; cited from earlier work
[5] = type: physicochemical
Source text: The term “log kBMC” refers to the logarithm of the chromatographic capacity factor (reference retention time) in BMC, a special type of HPLC (Escuder-Gilabert, L., et al., Journal of Chromatography B, 2004, 807, 193-201). This analytical technique was used to correlate the log kBMC of 31 reference drug substances with known experimentally determined log BB values. A linear regression mathematical equation log BB=a(log kBMC)+b was obtained from these reference drug substances wherein a and b are constants. The log kBMC of the compounds of the present invention was measured by BMC. The experimental log kBMC of the compounds of the present invention was fit into the log BB=a(log KBMC) b equation to obtain a calculated log BB value. The calculated log BB is an indicator of the BBB penetration property of the compounds of the present invention.
FIG. 1 provides a table illustrating the physical properties of selected compounds of formula (I) according to the present invention. […] The chromatographic capacity factor kBMC of 31 reference drug substances with known experimentally determined log BB values were recorded (FIGS. 2 and 3). […] We used the above equation to compute a calculated log BB value of the compounds of the present invention as an estimate of the BBB penetration properties of the compounds. Deferiprone is known to penetrate the BBB and has a calculated log BB value of −1.05. […]

Row | SMILES | AUC brain* [2] | Kp at 5 min [2] | Kp [2] | AUC [2] | Kα [2] | Kβ [2] | t1/2α [2] | t1/2β [2] | also measured
1 | Cn1cc(O)c(=O)cc1CF [(D)] |  |  |  |  |  |  |  |  | stability in aqueous solution [1]: unstable
2 | Cc1cc(=O)c(O)c(C(F)F)n1C [(iv), 2-difluoromethyl-3-hydroxy-1,6-dimethyl-1H-pyridin-4-one] |  |  |  |  |  |  |  |  | stability in 50 mM phosphate buffer at pH 7.4 or aqueous 0.01 N NaOH [1]: almost instantaneously hydrolysed to their corresponding aldehydes; stability in aqueous 0.01 N HCl and de-ionized water at pH 5.6 [1]: stable
3 | Cn1ccc(=O)c(O)c1C(F)F [(v), 2-difluoromethyl-3-hydroxy-1-methyl-1H-pyridin-4-one] |  |  |  |  |  |  |  |  | stability in 50 mM phosphate buffer at pH 7.4 or aqueous 0.01 N NaOH [1]: almost instantaneously hydrolysed to their corresponding aldehydes; stability in aqueous 0.01 N HCl and de-ionized water at pH 5.6 [1]: stable; stability in pH 7.4 phosphate buffer and 0.01 M sodium hydroxide [1]: unstable
4 | Cc1cc(=O)c(O)c(C(O)C(F)(F)F)n1C (stereo not drawn) [Apo6729, 3-hydroxy-1,6-dimethyl-2-(2,2,2-trifluoro-1-hydroxy-ethyl)-1H-pyridin-4-one] |  |  |  |  |  |  |  |  | time stable in 0.1N HCl, 50 mM phosphate buffer pH 7.4 and 0.1 N NaOH ([1]; 0.1N HCl, 50 mM phosphate buffer at pH 7.4, 0.1 N NaOH, room temperature): at least 21 hrs
5 | Cn1ccc(=O)c(O)c1CC(F)(F)F [Apo6825, 3-hydroxy-1-methyl-2-(2,2,2-trifluoro-ethyl)-1H-pyridin-4-one] | 2730 ng·h/mL | 0.46 | 0.6 | 4520 ng·h/mL | 0.68 h⁻¹ | 0.133 h⁻¹ | 1.02 h | 5.21 h | 
6 | Cc1c(O)c(=O)c(CC(F)(F)F)cn1C [Apo6855, 3-Hydroxy-1,2-dimethyl-5-(2,2,2-trifluoro-ethyl)-1H-pyridin-4-one] | 580 ng·h/mL | 0.5 | 0.65 | 890 ng·h/mL | 2.37 h⁻¹ | 0.136 h⁻¹ | 0.29 h | 5.10 h | 
7 | CNC(=O)c1c(O)c(=O)cc(C)n1C [CP502] |  |  |  |  |  |  |  |  | pFe(III) / pFe^3+ [3]: 21
8 | Cc1c(O)c(=O)ccn1C [Deferiprone, 3-hydroxy-1,2-dimethyl-1H-pyridin-4-one] | 860 ng·h/mL | 0.45 | 0.79 | 1080 ng·h/mL | 1.36 h⁻¹ | 0.215 h⁻¹ | 0.51 h | 3.22 h | distribution coefficient [4]: 0.17; calculated log BB [5]: −1.05
9 | Cc1cc(=O)c(O)c(CF)n1C [compound (C)] |  |  |  |  |  |  |  |  | stability in aqueous solution [1]: unstable
10 | Cn1cc(O)c(=O)cc1CF [compound (vii), 2-fluoromethyl-5-hydroxy-1-methyl-1H-pyridin-4-one] |  |  |  |  |  |  |  |  | fraction of compound remaining ([1]; 50 mM phosphate buffer at pH 7.4, after 5 hrs): about half; time stable in MeOH ([1]; MeOH): at least 4 hrs; stability in aqueous 0.01 N NaOH ([1]; aqueous 0.01 N NaOH): decomposed rapidly; stability in pH 7.4 phosphate buffer and 0.01 M sodium hydroxide [1]: unstable
